Some test systems named below: SF-268 CNS; OVCAR-3 ovarian; M14 melanoma; UACC-62 melanoma; HT29 colon; CAKI-1 renal; MALME-3M melanoma; HOP-92 NSCLC; NCI/ADR-RES ovarian; HS 578T breast; SK-MEL-28 melanoma; HCC-2998 colon; SF-539 CNS; NCI-H226 lung; SW-620 colon; NCI-H23 lung; HCT-15 colon; OVCAR-4 ovarian; SK-OV-3 ovarian; EKVX NSCLC.
Holding throughout (test): growth of human tumour cells (NCI), 48 h

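All cell lines were grown in 96-well plates and treated with compound for 48 hours. TGI: total growth inhibition.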

The text below walks through data of PubChem BioAssay (NCI).

In the case of `CC(=O)NC1C(O)C(O)C(CO)OC1n1nc(SCc2ccccc2)c(=O)[nH]c1=O` (stereo not given), the TGI in the assay on SF-268 CNS, with OVCAR-3 ovarian, in the assay with M14 melanoma, in the assay on UACC-62 melanoma, in the assay with HT29 colon and with CAKI-1 renal was > 100 µM throughout. Also, the TGI in the assay on MALME-3M melanoma, in the assay on HOP-92 NSCLC, in the assay on NCI/ADR-RES ovarian, with HS 578T breast, in the assay on SK-MEL-28 melanoma and in the assay with HCC-2998 colon was > 100 µM throughout. The TGI in the assay on SF-539 CNS, with NCI-H226 lung, in the assay on SW-620 colon, with NCI-H23 lung, with HCT-15 colon and with OVCAR-4 ovarian was > 100 µM in each case. Also, the TGI with SK-OV-3 ovarian and in the assay with EKVX NSCLC was > 100 µM in each case.
As to `CN(C)CCn1c2c(c3ccccc31)CCc1ccccc1-2`, the TGI in the assay on SF-268 CNS was determined as 32.3 µM; in the assay on OVCAR-3 ovarian, 27.7 µM; with M14 melanoma, 26.3 µM; with UACC-62 melanoma it was 25.9 µM; in the assay with HT29 colon, 21.1 µM; in the assay on CAKI-1 renal, 29.4 µM. In addition, the TGI was determined as 30.5 µM in the assay on MALME-3M melanoma; 27 µM in the assay with HOP-92 NSCLC; 29.9 µM in the assay on NCI/ADR-RES ovarian; 29.7 µM with HS 578T breast; 29.9 µM in the assay with SK-MEL-28 melanoma; 16.7 µM with HCC-2998 colon. Also, the TGI with SF-539 CNS came to 26.2 µM; in the assay on NCI-H226 lung, 26 µM; in the assay with SW-620 colon it was 40.4 µM; in the assay with NCI-H23 lung, 31.4 µM; in the assay with HCT-15 colon, 22.5 µM; in the assay on OVCAR-4 ovarian it was 28.3 µM. Also, the values for the TGI in the assay on SK-OV-3 ovarian and with EKVX NSCLC were 32.7 µM and 32.4 µM, respectively.
